The test concerns the target human PAD4 (Homo sapiens (Human), UniProt Q9UM07). The experiment in a line: In Vitro PAD4 BAEE Biochemical Assay. To be noted: geometric mean of multiple experiments. An outline of the steps:
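Recombinant human PAD4 (His-SUMO tag removed, E. coli-expressed), 5 nM, preincubated with compound and 2 mM CaCl2 30 min at 25 °C in MOPS pH 7.6 with DTT; 3 mM BAEE added for 2 h at 25 °C, EDTA stop. Released ammonia detected by o-phthalaldehyde/DTT fluorescence (ex 405, em 535 nm).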

Where [1] appears, read: human PAD4, BAEE substrate, 5 nM PAD4, 2 mM calcium chloride, 3 mM BAEE.
Setting [2] is: recombinant PAD4 5 nM, 2 mM calcium chloride, 3 mM BAEE substrate.

pIC50: −log10 of the molar value.

human PAD4, sequence (Q9UM07 2-663): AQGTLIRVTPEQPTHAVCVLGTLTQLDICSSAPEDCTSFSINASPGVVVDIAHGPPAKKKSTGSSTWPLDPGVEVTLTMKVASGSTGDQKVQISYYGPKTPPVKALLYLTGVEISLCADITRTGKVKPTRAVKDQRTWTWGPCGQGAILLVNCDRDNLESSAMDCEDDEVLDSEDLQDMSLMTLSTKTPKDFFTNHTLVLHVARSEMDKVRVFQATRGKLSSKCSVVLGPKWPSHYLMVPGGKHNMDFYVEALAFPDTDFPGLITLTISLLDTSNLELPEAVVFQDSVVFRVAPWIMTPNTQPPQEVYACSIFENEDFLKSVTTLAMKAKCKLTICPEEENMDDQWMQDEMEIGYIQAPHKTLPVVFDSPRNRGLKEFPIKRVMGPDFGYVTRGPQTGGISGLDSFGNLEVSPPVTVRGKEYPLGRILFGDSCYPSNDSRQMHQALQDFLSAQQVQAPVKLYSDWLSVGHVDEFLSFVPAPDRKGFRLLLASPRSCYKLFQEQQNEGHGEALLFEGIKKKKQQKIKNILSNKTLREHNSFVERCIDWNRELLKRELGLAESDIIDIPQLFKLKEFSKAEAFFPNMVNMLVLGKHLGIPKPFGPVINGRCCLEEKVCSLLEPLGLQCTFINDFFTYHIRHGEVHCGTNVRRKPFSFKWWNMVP

Usually pIC50 stands for the IC50 on a negative log10 scale, so that one unit is a factor of ten. Regarding `C[C@H]1CCCS(=O)(=O)N1c1ccc2cc(-c3nc4cc(C(=O)N5[C@H]6CC[C@@H]5[C@H](N)C6)ccc4n3C3CC3)n(CC3CC3)c2n1` [Example 98, ((1R,2R,4S)-2-amino-7-azabicyclo[2.2.1]heptan-7-yl) (1-cyclopropyl-2-(1-(cyclopropylmethyl)-6-((S)-3-methyl-1,1-dioxido-1,2-thiazinan-2-yl)-1H-pyrrolo[2,3-b]pyridin-2-yl)-1H-benzo[d]imidazol-5-yl)methanone], under setting [1], the pIC50 was 7.72.
`COc1cc(C(=O)N2CCC[C@@H](N)[C@H]2C)cc2nc(-c3cc4ccc(N(C)S(C)(=O)=O)nc4n3C3CC3)n(C)c12` [Example 47, N-(2-(5-((2R,3R)-3-amino-2-methylpiperidine-1-carbonyl)-7-methoxy-1-methyl-1H-benzo[d]imidazol-2-yl)-1-cyclopropyl-1H-pyrrolo[2,3-b]pyridin-6-yl)-N-methylmethanesulfonamide]: under setting [1], the pIC50 is 5.76.
`COc1cc(C(=O)N2CCC[C@@H](N)C2)cc2nc(-c3cc4ccc(N(C)S(C)(=O)=O)cc4n3CC3CC3)n(C)c12` [Example 2, (R)-N-(2-(5-(3-aminopiperidine-1-carbonyl)-7-methoxy-1-methyl-1H-benzo[d]imidazol-2-yl)-1-(cyclopropylmethyl)-1H-indol-6-yl)-N-methylmethanesulfonamide]: under setting [1], the pIC50 was 6.68.
The same measure, in the same setting: the result for `COc1cc(C(=O)N2C[C@H](N)CCN2C)cc2nc(-c3cc4ccc([C@@H](C)NC(=O)C5(C(F)F)CC5)nc4n3CC3CC3)n(C)c12` [Example 191, N-((R)-1-(2-(5-((R)-5-amino-2-methylhexahydropyridazine-1-carbonyl)-7-methoxy-1-methyl-1H-benzo[d]imidazol-2-yl)-1-(cyclopropylmethyl)-1H-pyrrolo[2,3-b]pyridin-6-yl)ethyl)-1-(difluoromethyl)cyclopropane-1-carboxamide] reads 7.08; that for `COc1cc(C(=O)N2CCC[C@@H](N)C2)cc2nc(-c3cc4ccc([C@@H](C)NC(=O)C56CC(F)(C5)C6)c(F)c4n3CC3CC3)n(C)c12` [Example 143, N-((R)-1-(2-(5-((R)-3-aminopiperidine-1-carbonyl)-7-methoxy-1-methyl-1H-benzo[d]imidazol-2-yl)-1-(cyclopropylmethyl)-7-fluoro-1H-indol-6-yl)ethyl)-3-fluorobicyclo[1.1.1]pentane-1-carboxamide], 6.30.
For the compound `CCN(c1ccc2cc(-c3nc4cc(C(=O)N5C[C@H](N)CC[C@@H]5C)cc(OC)c4n3C)n(CC3CC3)c2n1)S(C)(=O)=O` [Example 30, N-(2-(5-((2S,5R)-5-amino-2-methylpiperidine-1-carbonyl)-7-methoxy-1-methyl-1H-benzo[d]imidazol-2-yl)-1-(cyclopropylmethyl)-1H-pyrrolo [2,3-b]pyridin-6-yl)-N-ethylmethanesulfonamide], under setting [1], the pIC50 is 7.05.
For the compound `COc1cc(C(=O)N2C[C@H](N)CCN2C)cc2nc(-c3cc4ccc(C(C)(C)NC(=O)c5ccccc5)nc4n3CC3CC3)n(C)c12` [Example 209], under setting [1], the pIC50 was 6.70.
Same read-out and setting: the result for `COc1cc(C(=O)N2C[C@H](N)CCN2C)cc2nc(-c3cc4ccc([C@@H](C)NC(=O)c5cccnc5C)nc4n3CC3CC3)n(C)c12` [Example 177, N-((R)-1-(2-(5-((R)-5-amino-2-methylhexahydropyridazine-1-carbonyl)-7-methoxy-1-methyl-1H-benzo[d]imidazol-2-yl)-1-(cyclopropylmethyl)-1H-pyrrolo[2,3-b]pyridin-6-yl)ethyl)-2-methylnicotinamide] reads 7.04.
With `COc1cc(C(=O)N2C[C@H](N)CC[C@@H]2C)cc2nc(-c3cc4ccc(N5C(=O)CCC5C)nc4n3CC3CC3)n(C)c12` (stereo partly drawn) [Example 280, 1-(2-(5-((2S,5R)-5-amino-2-methylpiperidine-1-carbonyl)-7-methoxy-1-methyl-1H-benzo[d]imidazol-2-yl)-1-(cyclopropylmethyl)-1H-pyrrolo[2,3-b]pyridin-6-yl)-5-methylpyrrolidin-2-one], under setting [1], the pIC50 was 6.27.
With `COc1cc(C(=O)N2C[C@H](N)CCN2C)cc2nc(-c3cc4ccc([C@@H](C)NC(=O)c5cccnc5)nc4n3CC3CC3)n(C)c12` [Example 201, N-((R)-1-(2-(5-((R)-5-amino-2-methylhexahydropyridazine-1-carbonyl)-7-methoxy-1-methyl-1H-benzo[d]imidazol-2-yl)-1-(cyclopropylmethyl)-1H-pyrrolo[2,3-b]pyridin-6-yl)ethyl)nicotinamide], the pIC50 under setting [1] was 7.17.
Turning to `COc1cc(C(=O)N2C[C@H](N)CC[C@@H]2C)cc2nc(-c3cc4ccc(N(C(F)F)S(C)(=O)=O)nc4n3CC3CC3)n(C34CC(C3)C4)c12` [Example 48, N-(2-(5-((2S,5R)-5-amino-2-methylpiperidine-1-carbonyl)-1-(bicyclo[1.1.1]pentan-1-yl)-7-methoxy-1H-benzo[d]imidazol-2-yl)-1-(cyclopropylmethyl)-1H-pyrrolo[2,3-b]pyridin-6-yl)-N-(difluoromethyl) methane sulfonamide], the pIC50 under setting [1] is 5.67.
Regarding `COc1cc(C(=O)N2C[C@H](N)CCN2C)cc2nc(-c3cc4ccc([C@@H](C)NC(=O)C5(c6ccc(F)cc6)CC5)nc4n3CC3CC3)n(C)c12` [Example 199, N-((R)-1-(2-(5-((R)-5-amino-2-methylhexahydropyridazine-1-carbonyl)-7-methoxy-1-methyl-1H-benzo[d]imidazol-2-yl)-1-(cyclopropylmethyl)-1H-pyrrolo[2,3-b]pyridin-6-yl)ethyl)-1-(4-fluorophenyl)cyclopropane-1-carboxamide], the pIC50 under setting [1] was 6.47.
The same measure, in the same setting: the result for `COc1cc(C(=O)N2C[C@H](N)CCN2C)cc2nc(-c3cc4ccc([C@@H](C)NC(=O)c5cnn(C(F)F)c5)nc4n3CC3CC3)n(C)c12` [Example 170, N-((R)-1-(2-(5-((R)-5-amino-2-methylhexahydropyridazine-1-carbonyl)-7-methoxy-1-methyl-1H-benzo[d]imidazol-2-yl)-1-(cyclopropylmethyl)-1H-pyrrolo[2,3-b]pyridin-6-yl)ethyl)-1-(difluoromethyl)-1H-pyrazole-4-carboxamide] reads 7.17.
On to `COc1cc(C(=O)N2CCC[C@@H](N)[C@H]2C)cc2nc(-c3cc4ccc(N(C5CC5)S(C)(=O)=O)nc4n3CC3CC3)n(C)c12` [Example 31, N-(2-(5-((2R,3R)-3-amino-2-methylpiperidine-1-carbonyl)-7-methoxy-1-methyl-1H-benzo[d]imidazol-2-yl)-1-(cyclopropylmethyl)-1H-pyrrolo [2,3-b]pyridin-6-yl)-N-cyclopropylmethanesulfonamide], for which the pIC50 under setting [1] was 6.96.
As to `COc1cc(C(=O)N2C[C@H](N)[C@@H]3CC[C@H]2C3)cc2nc(-c3cc4ccc([C@@H](C)NC(=O)c5cccnc5C(F)F)nc4n3CC3CC3)n(C)c12` [Example 305, N-((R)-1-(2-(5-((1S,4R,5R)-4-amino-2-azabicyclo[3.2.1]octane-2-carbonyl)-7-methoxy-1-methyl-1H-benzo[d]imidazol-2-yl)-1-(cyclopropylmethyl)-1H-pyrrolo[2,3-b]pyridin-6-yl)ethyl)-2-(difluoromethyl)nicotinamide], the pIC50 under setting [2] is 7.14.
`COc1cc(C(=O)N2C[C@H](N)CC[C@@H]2C)cc2nc(-c3cc4ccc(C(=O)N(C)c5ccccc5)nc4n3CC3CC3)n(C)c12` [Example 252, 2-(5-((2S,5R)-5-amino-2-methylpiperidine-1-carbonyl)-7-methoxy-1-methyl-1H-benzo[d]imidazol-2-yl)-1-(cyclopropylmethyl)-N-methyl-N-phenyl-1H-pyrrolo[2,3-b]pyridine-6-carboxamide]: under setting [1], the pIC50 is 5.74.
On to `COc1cc(C(=O)N2C[C@H](N)[C@@H]3CC[C@H]2C3)cc2nc(-c3cc4ccc([C@@H](C)NC(=O)C5(F)CC5)nc4n3CC3CC3)n(C)c12` [Example 326, N-((R)-1-(2-(5-((1S,4R,5R)-4-amino-2-azabicyclo[3.2.1]octane-2-carbonyl)-7-methoxy-1-methyl-1H-benzo[d]imidazol-2-yl)-1-(cyclopropylmethyl)-1H-pyrrolo[2,3-b]pyridin-6-yl)ethyl)-1-fluorocyclopropane-1-carboxamide], for which the pIC50 under setting [2] is 6.99.
`COc1cc(C(=O)N2[C@H]3CC[C@@H]2[C@H](N)C3)cc2nc(-c3cc4ccc([C@@H](C)NC(=O)c5cnn(C)c5)nc4n3CC3CC3)n(C)c12` [Example 206, N-((R)-1-(2-(5-((1R,2R,4S)-2-amino-7-azabicyclo[2.2.1]heptane-7-carbonyl)-7-methoxy-1-methyl-1H-benzo[d]imidazol-2-yl)-1-(cyclopropylmethyl)-1H-pyrrolo[2,3-b]pyridin-6-yl)ethyl)-1-methyl-1H-pyrazole-4-carboxamide]: the pIC50 under setting [1] is 7.34.
Turning to `COc1cc(C(=O)N2C[C@H](N)[C@@H]3CC[C@H]2C3)cc2nc(-c3cc4ccc([C@@H](C)NC(=O)c5ccc(C#CC(C)(C)S(C)(=O)=O)nc5)nc4n3CC3CC3)n(C)c12` [Example 308, N-((R)-1-(2-(5-((1S,4R,5R)-4-amino-2-azabicyclo[3.2.1]octane-2-carbonyl)-7-methoxy-1-methyl-1H-benzo[d]imidazol-2-yl)-1-(cyclopropylmethyl)-1H-pyrrolo[2,3-b]pyridin-6-yl)ethyl)-6-(3-methyl-3-(methylsulfonyl)but-1-yn-1-yl)nicotinamide], the pIC50 under setting [2] was 7.18.
Regarding `COc1cc(C(=O)N2CCC[C@@H](N)C2)cc2nc(-c3cc4ccc(N(C(F)F)S(C)(=O)=O)nc4n3CC3CC3)n(C)c12` [Example 18, (R)-N-(2-(5-(3-aminopiperidine-1-carbonyl)-7-methoxy-1-methyl-1H-benzo[d]imidazol-2-yl)-1-(cyclopropylmethyl)-1H-pyrrolo[2,3-b]pyridin-6-yl)-N-(difluoromethyl) methanesulfonamide], the pIC50 under setting [1] is 7.08.

Source of the values: patent publication US11878965B2, “Inhibitors of peptidylarginine deiminases” (Gilead Sciences, Inc., priority 2020, dated 2024).
